Laboratory results: US20200002665A1 (Heliae Development, LLC, priority 2016, published 2020)
Where two headings read alike, the source gives them in different places.

What was measured:
Chlorella (HS26) cells = test: pH drift of cultures suspended in different nitrogen sources (Example 1); assay type: cell-based; details: after 24 hours, compared to a control; light, shaking 100 RPM; FIG. 10
Experimental: The Chlorella cultures were supplied with light, and shaking from a shaker table at 100 RPM. The pH drift of each culture was measured after 24 hours and compared to a control.

Chlorella cultures = details: 1 g N/L of NH4; mixotrophic, acetic acid as organic carbon source; FIG. 11
Description: The Chlorella cultures productivity using either ammonium (NH4) or nitrates (NO3) as the nitrogen source in mixotrophic culture conditions (i.e., supply of light, supply of acetic acid as the organic carbon source) were then compared. The cultures received NH4 at a concentration of 0.13 g N/L, 0.25 g N/L, 0.5 g N/L, or 1 g N/L for the ammonium treatments. The cultures received NO3 at a concentration of 0.25 g N/L or 1 g N/L for the nitrate treatments. Samples were taken to measure cell dry weight at 0, 39, 86, and 161.5 hours.

Chlorella (HS26) [1] = test system: Chlorella (HS26)
Experimental: Cultures of Chlorella (HS26) were inoculated at 0.3 g/L in glass column bioreactors at a volume of 700 mL of BG-11 culture media and maintained at a temperature of 27° C. The mixotrophic cultures received aeration at a rate of 1 Liter per minute, an initial batch of 30 g glucose/L, and were supplied 270 micromoles of light using LED lights (LumiGrow, Inc., Emeryville, Calif.). In a first treatment, the culture was supplied with an initial batch of 3 g/L NaNO3 (“Nitrate” treatment), and the culture pH was controlled at a set point of 6.5 by a pH auxostat feed containing 0.50% HCl. In a second treatment, the culture was supplied with an initial batch of 3 g/L NaNO3 (“Nitrates” treatment), and the culture pH was controlled at a set point of 7.5 by a pH auxostat feed containing 0.50% HCl. […] Samples were taken daily to measure the cell dry weight, nitrogen concentration, and total protein.

Schizochytrium limacinum = details: pH 6.5
Description: The heterotrophic cultures received aeration at a rate of 1 Liter per minute, and an initial batch of 80 g glycerol/L. In a first treatment, the culture was supplied with an initial batch of 20 g/L monosodium glutamate (“Glutamate” treatment), and the culture pH was controlled at a set point of 6.5 by a pH auxostat feed containing 1% HCl. […] Samples were taken daily to measure the cell dry weight, nitrogen concentration, and total protein. Results are show in FIGS. 30-33.

Chlorella (HS26) [2] = details: for total protein content: FIG. 29; for growth (cell dry weight over time): FIG. 26
Experimental: Cultures of Chlorella (HS26) were inoculated at 0.3 g/L in glass column bioreactors at a volume of 700 mL of BG-11 culture media and maintained at a temperature of 27° C. The mixotrophic cultures received aeration at a rate of 1 Liter per minute, an initial batch of 30 g glucose/L, and were supplied 270 micromoles of light using LED lights (LumiGrow, Inc., Emeryville, Calif.). In a first treatment, the culture was supplied with an initial batch of 3 g/L NaNO3 (“Nitrate” treatment), and the culture pH was controlled at a set point of 7.0 by a pH auxostat feed containing 0.50% HCl. In a second treatment, the culture was supplied with an initial batch of 3 g/L NaNO3 (“Nitrates” treatment), and the culture pH was controlled at a set point of 8.0 by a pH auxostat feed containing 0.50% HCl. […] Samples were taken daily to measure the cell dry weight, nitrogen concentration, and total protein.

Chlorella (HS26) [3] = details: pH 7.0
Experimental: Cultures of Chlorella (HS26) were inoculated at 0.3 g/L in glass column bioreactors at a volume of 700 mL of BG-11 culture media and maintained at a temperature of 27° C. The mixotrophic cultures received aeration at a rate of 1 Liter per minute, an initial batch of 30 g glucose/L, and were supplied 270 micromoles of light using LED lights (LumiGrow, Inc., Emeryville, Calif.). In a first treatment, the culture was supplied with an initial batch of 3 g/L NaNO3 (“Nitrate” treatment), and the culture pH was controlled at a set point of 7.0 by a pH auxostat feed containing 0.75% HCl. […] Samples were taken daily to measure the cell dry weight, nitrogen concentration, and total protein.

Chlorella (HS26) [4] = details: for final day (day 4) cell dry weight: FIG. 16
Experimental: Cultures of Chlorella (HS26) were inoculated at 0.3 g/L in glass column bioreactors at a volume of 700 mL of BG-11 culture media and maintained at a temperature of 27° C. The mixotrophic cultures received an initial batch of 1 g/L NH4Cl, aeration at a rate of 1 Liter per minute, an initial batch of 40 g glucose/L, and were supplied 270 micromoles of light using LED lights (LumiGrow, Inc., Emeryville, Calif.). Treatments were conducted at culture medium pH values of 6.5, 7.0, 7.3, 7.5, 7.8, 8.0, and 8.5. The culture medium pH was controlled with a pH auxostat supplying a titrate of 0.5% NH4OH and 0.75% HCl at the designated set points. Samples were taken daily to measure the cell dry weight, nitrogen concentration, and total protein. Results are show in FIGS. 13-17.

## O=[N+]([O-])[O-].[Na+] [sodium nitrate, reference compound]
Chlorella (HS26) cells
  pH drift of culture: increased in culture pH

## N.N.O=S(=O)(O)O [ammonium sulfate]
Chlorella (HS26) cells
  pH drift of culture: decreased in culture pH

## N [Ammonia, ammonia]
Chlorella cultures
  growth and productivity (cell dry weight): suffered
Chlorella (HS26) [1]; Ammonia pH 6.5 treatment, among Ammonia and Nitrate treatments at pH 6.5 and 7.5, FIG. 22
  growth (cell dry weight over time): greatest amount of growth
Chlorella (HS26) [1]; Ammonia treatments pH 6.5 and 7.5 versus Nitrate treatments, FIG. 25
  total protein content: more protein than the Nitrate treatments
Schizochytrium limacinum; 1.0 g/L NH4Cl, 10% NH4OH feed, heterotrophic, glycerol, FIG. 30
  growth (cell dry weight over time): higher resulting growth than the Glutamate treatment
Schizochytrium limacinum; over the Glutamate treatment, FIG. 33
  increase in protein yield: 20%
Chlorella (HS26) [2]; Ammonia culture grown at the higher pH (8.0)
  total protein content: highest resulting protein
Chlorella (HS26) [2]; Ammonia pH 7.0 treatment
  growth (cell dry weight over time): highest resulting growth
Chlorella (HS26) [2]; Ammonia pH 8.0 treatment
  growth (cell dry weight over time): impaired growth
Chlorella (HS26) [2]; Ammonia treatments pH 7.0 and 8.0 versus Nitrate treatments
  total protein content: more total protein than the Nitrate treatments
Chlorella (HS26) [3]; 1.0 g/L NH4Cl, 0.5% NH4OH feed, versus Nitrate treatment, FIG. 18
  growth (cell dry weight over time): better growth than the Nitrate treatment
Chlorella (HS26) [3]; compared to the Nitrate treatment, FIG. 21
  increase in protein: 15%
Chlorella (HS26) [4]; culture pH 6.5 to 8.5, particularly above 7.5, FIG. 17
  total protein on the final day (day 4): increased as the culture pH increased
Chlorella (HS26) [4]; culture pH above 7.5, FIG. 15
  accumulated protein (total protein content): increase in accumulated protein
Chlorella (HS26) [4]; culture pH above 7.5
  final day (day 4) cell dry weight: decreased as the culture pH increased
Chlorella (HS26) [4]; culture pH above 7.5, initial 1 g/L NH4Cl, 0.5% NH4OH titrant, FIG. 13
  growth (cell dry weight over time): impaired growth
Chlorella (HS26) [4]; culture pH of 7.5 and below
  final day (day 4) cell dry weight: substantially similar
